The values below are quoted from earlier work in patent publication US4946853A, “Method for the treatment of withdrawal symptoms associated with smoking cessation and preparations for use in said method” (priority 1987, dated 1990).

Molecules are shown by their SMILES.

The conditions of data set [1]: in vivo.
The conditions of data set [2]: oral nicotine administration.
For data set [3] the following is noted: within one hour of first smoking; 60 min.

Take `CN1CCCC1c1cccnc1` (stereo not drawn) [nicotine]: in data set [1], the “absorption by the percutaneous route” value is reported as “high degree of absorption”. Besides, the gastrointestinal upsets result in data set [2] was “susceptibility of the patient to gastrointestinal upsets”. Also, the “normal plasma trough level associated with usual smoking” value in data set [3] is 5 to 15 ng/mL.
